The experiment relates to 439559-082-T-J2-PDC spheroid viability. In words: Anticancer human tumor 439559-082-T-J2-PDC patient-derived colon adenocarcinoma cell line growth inhibition [POLQ]. The settings on record: spheroids with HUVEC and MSC; for viability, T/C: stronger effect = lower value; for IC50: curve of compound. As for the experimental part: Multicellular complex tumor spheroid response to Polymerase (POL) inhibitors (novobiocin, ART-558, RP6685) in combination with a variety of drugs and investigational agents in selected tumor cell lines
The POL inhibitors (novobiocin, ART-558, and RP6685) were evaluated both individually and in combination with standard of care and investigational anticancer small molecules within a complex spheroid model of solid tumors. . Complex spheroids include a stromal component modeled by human endothelial cells (HUVEC) and fibroblasts modeled by human mesenchymal stem cells (MSCs). The concentration ranges selected for each drug and investigational agent were based upon clinically achievable concentrations if the clinical Cmax of the agent was known.
Compounds. The drugs and investigational agents: novobiocin (NSC847541), ART-558 (NSC835418), RP-6685 (NSC848927), peposertib (NSC802822), ceralasertib (NSC780249), elimusertib (NSC800525), camonsertib (NSC841442), AZD-1390 (NSC803789), olaparib (NSC753686), talazoparib (NSC767125), rucaparib (NSC756644), sotorasib (NSC818433), MRTX-1133 (NSC836407), SN-38 (NSC673596), topotecan (NSC609699), epotoside (NSC141540), doxorubicin (NSC123127), gemcitabine (NSC613327), 5-fluorouracil (NSC19893), paclitaxel (NSC125973), vemurafenib (NSC761431), MSA-2 (NSC828583), SN-011 (NSC837082), adavosertib (NSC754352), prexasertib (NSC758257), carboplatin (NSC241240) and oxaliplatin (NSC266046), were obtained from the National Cancer Institute (NCI) Developmental Therapeutics Program Chemical Repository (21). The FDA-approved anticancer drug set is available from the Developmental Therapeutics Program at https://dtp.cancer.gov/organization/dscb/obtaining/. […] The stock solutions were prepared in dimethyl sulfoxide (DMSO, Sigma-Aldrich, St. Louis, MO, cat. D2650), except for the platinum compounds which were prepared in saline (Quality Biological, Gaithersburg, MD, cat. 114-055-101), at 800-fold the tested concentration and stored at -70 degrees C prior to their use. All drugs and investigational agents were tested over a range starting from a high concentration at or near the clinical Cmax and decreasing in half-log increments. If the clinical Cmax for an agent had not been determined, the highest concentration tested was 10 microM, except for SN-38, which was tested at a high concentration of 1 microM.
Cell Culture. All cells were maintained in an incubator at 37 degrees C and 5% CO2 with 95% humidity. The PDC lines were cultured according to standard operating procedures established by the NCI PDMR (https://pdmr.cancer.gov). Table 3 of the manuscript, lists the cell lines along with the number of the three cell types plated to form the mct-spheroids and media for tumor cell growth. After thawing, all PDC lines, except 997537-175-T-J1-PDC and 415267-285-R-J2-PDC, were cultured in Matrigel-coated flasks prepared with a working solution of 1X Ham's F-12 nutrient mix, without supplementation (Thermo Fisher Scientific, cat. 11765054), 100 U/mL penicillin-streptomycin (Thermo Fisher Scientific, cat. 15140122), and 2.5% Matrigel (Corning Inc., Corning, NY, cat. 354248) for the first three passages. The two PDC lines 997537-175-T-J1-PDC and 415267-285-R-J2-PDC were cultured on uncoated flasks. The 857933-349-R-J2-PDC line was cultured in 6C/Colon 1B media containing advanced DMEM/F-12 (Thermo Fisher Scientific, cat. 12634028), 10 mM HEPES (Thermo Fisher Scientific, cat. 15630080), 1X GlutaMAX supplement (Thermo Fisher Scientific, cat. 35050061), 0.1 mg/mL primocin (InvivoGen, San Diego, CA, cat. ant-pm-2), 10% defined fetal bovine serum, heat inactivated (HyClone Laboratories Inc., Logan, UT, cat. SH30070.03HI), 50% L-WRN conditioned media (ATCC, cat. CRL-3276), 1.25 mM N-Acetyl-L-cysteine (Sigma-Aldrich, cat. A9165), 10 mM nicotinamide (Sigma-Aldrich, cat. N0636), 1X B-27 supplement (Thermo Fisher Scientific, cat. 17504044), 1X N-2 supplement (Thermo Fisher Scientific, cat. […]

“And” between values parts separate entries of the source, which are not always exact repeats. Identical values can stand only once.
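Further: spheroids exposed to compounds for seven days before readout.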
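Wherever viability, T/C is given: 100% = DMSO vehicle control viability.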

As to `C#Cc1c(F)ccc2cc(O)cc(-c3ncc4c(N5CC6CCC(C5)N6)nc(OCC56CCCN5CC(F)C6)nc4c3F)c12` (centres undefined), the IC50 was > 10 µM. Moreover, where the note is “compound 0.0316 µM”, the viability, T/C was 98.3% and 86.1% and 91.5%. Further, under “compound 0.1 µM”, the viability, T/C was 87.7% and 85.2% and 81.3%. For the same molecule, the viability, T/C (compound 0.316 µM) was 72.3% and 64.9% and 72.9%. Further, where the note is “compound 1 µM”, the viability, T/C was 66.5% and 68.4% and 70.6%. Also, the viability, T/C (compound 3.16 µM) was 59.8% and 69.2% and 61.3%. For the same molecule, the viability, T/C (compound 10 µM) is 53% and 67.8% and 51%.

As to `C=CC(=O)N1CCN(c2nc(=O)n(-c3c(C)ccnc3C(C)C)c3nc(-c4c(O)cccc4F)c(F)cc23)C(C)C1` (centres undefined), the IC50 is > 10 µM. In addition, the viability, T/C (compound 0.0316 µM) was 93% and 88.6% and 99.7%. The viability, T/C (compound 0.1 µM) was 91.5% and 84.4% and 100%. Besides, the viability, T/C (compound 0.316 µM) is 95.6% and 90.7% and 99.1%. For the same molecule, for the setting “compound 1 µM”, the viability, T/C is 96.8% and 92.5% and 105%. Besides, where the note is “compound 3.16 µM”, the viability, T/C is 97.7% and 80.5% and 99.9%. The viability, T/C (compound 10 µM) is 98.6% and 103% and 108%.

In the case of `CC(=O)O[C@H]1C(=O)[C@@]2(C)[C@H]([C@H](OC(=O)c3ccccc3)[C@]3(O)C[C@H](OC(=O)[C@H](O)[C@@H](NC(=O)c4ccccc4)c4ccccc4)C(C)=C1C3(C)C)[C@]1(OC(C)=O)CO[C@@H]1C[C@@H]2O`, the IC50 was 2.24 µM and 1.18 µM and 1.44 µM. Also, where the note is “compound 0.0949 µM”, the viability, T/C was 83% and 81.7% and 82.3%. For the same molecule, for the setting “compound 0.3 µM”, the viability, T/C is 77.9% and 70.6% and 74.8%. Besides, the viability, T/C (compound 0.949 µM) is 68.7% and 51.8% and 55.5%. In addition, for the setting “compound 3 µM”, the viability, T/C was 43.4% and 22.5% and 40.4%.

Consider `CC(C)n1c(=O)n(C)c2cnc3cc(F)c(-c4ccc(OCCCN5CCCCC5)nc4)cc3c21`, for which the IC50 is > 10 µM. The viability, T/C (compound 3.16 µM) is 116% and 127% and 102%.

`CC1COCCN1c1cc(-c2ccnn2C)c2ccnc(-c3ccn[nH]3)c2n1` (centres undefined): the viability, T/C runs as follows: (compound 0.0316 µM) 97.4% and 94.7% and 96.7%; (compound 0.1 µM) 69.8% and 71.2% and 83.1%; (compound 0.316 µM) 51.1% and 45.3% and 54.1%; (compound 1 µM) 46.9% and 43.4% and 49.2%; (compound 10 µM) 43.8% and 39.4% and 49.2%.

With `CC1COCCN1c1cc(C2(O)CC3CCC(C2)O3)c2cnn(-c3ccn[nH]3)c2n1` (centres undefined), the IC50 is 3.48 µM and 4.1 µM and > 10 µM. For the setting “compound 0.0316 µM”, the viability, T/C is 92.2% and 97.5% and 97.8%. Further, the viability, T/C (compound 0.1 µM) was 82.7% and 81.3% and 85.3%. For the same molecule, the viability, T/C (compound 0.316 µM) was 70.9% and 70.1% and 75.3%. The viability, T/C (compound 1 µM) is 61.7% and 59.7% and 72.1%. Also, the viability, T/C (compound 3.16 µM) is 47.5% and 49% and 59.7%. The viability, T/C (compound 10 µM) is 46.5% and 47% and 53.5%.

On to `CC1COCCN1c1cc(C2(S(C)(=N)=O)CC2)nc(-c2ccnc3[nH]ccc23)n1` (centres undefined), for which the IC50 is > 10 µM. Further, the viability, T/C (compound 0.0316 µM) was 100% and 99.8% and 96.6%. For the same molecule, the viability, T/C (compound 0.1 µM) was 98.7% and 94.7% and 99.4%. Further, the viability, T/C (compound 0.316 µM) was 95.2% and 91.3% and 98.8%. The viability, T/C (compound 1 µM) was 96% and 88% and 91.1%. Further, for the setting “compound 3.16 µM”, the viability, T/C was 94.9% and 97.8% and 85.5%. In addition, the viability, T/C (compound 10 µM) is 67.7% and 75.1% and 68.6%.

In the case of `CCCS(=O)(=O)Nc1ccc(F)c(C(=O)c2c[nH]c3ncc(-c4ccc(Cl)cc4)cc23)c1F`, the IC50 was > 10 µM and 7.74 µM. Also, the viability, T/C (compound 0.0316 µM) is 97.4% and 77.9% and 99.4%. Besides, the viability, T/C (compound 0.316 µM) is 102% and 105% and 90%. Further, the viability, T/C (compound 1 µM) was 103% and 87.8% and 100%.

(Values after PubChem BioAssay AID1963841 (Molecular Pharmacology Branch, DTP, NCI, 2024).)
